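Grown in 96-well plates, cells were treated for 48 hours with each compound at five concentrations. Insufficient inhibition: endpoint recorded as highest concentration tested. GI50 marks 50% less growth.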 The source made the active and inactive calls. Cut-off read from the data, not from the text of the source: active = GI50 up to about 1.1 µM and inactive = higher.
What was measured:
Test in all cases: NCI tumour cell line growth inhibition, 48 h
SR = tested on: SR
HOP-92 = tested on: HOP-92
TK-10 = tested on: TK-10
SK-MEL-28 = tested on: SK-MEL-28
ACHN = tested on: ACHN
SF-268 = tested on: SF-268
OVCAR-4 = tested on: OVCAR-4
SF-539 = tested on: SF-539
OVCAR-3 = tested on: OVCAR-3
K562 = tested on: K562
SK-OV-3 = tested on: SK-OV-3
Hs-578T = tested on: Hs-578T
HCC 2998 = tested on: HCC 2998
UACC-257 = tested on: UACC-257
MCF7 = tested on: MCF7
HCT-116 = tested on: HCT-116
SK-MEL-2 = tested on: SK-MEL-2
Malme-3M = tested on: Malme-3M
NCI-H522 = tested on: NCI-H522
SNB-75 = tested on: SNB-75

Compound | GI50 (SR) | GI50 (HOP-92) | GI50 (TK-10) | GI50 (SK-MEL-28) | GI50 (ACHN) | GI50 (SF-268) | GI50 (OVCAR-4) | GI50 (SF-539) | GI50 (OVCAR-3) | GI50 (K562) | GI50 (SK-OV-3) | GI50 (Hs-578T) | GI50 (HCC 2998) | GI50 (UACC-257) | GI50 (MCF7) | GI50 (HCT-116) | GI50 (SK-MEL-2) | GI50 (Malme-3M) | GI50 (NCI-H522) | GI50 (SNB-75)
CCOC(=O)CCC(NC(=O)Cc1ccc(Nc2nc3cc(F)c(F)cc3nc2C(=O)OCC)cc1)C(=O)OCC (stereo not given) | 27.5 µM (inactive) | 28.8 µM (inactive) | > 100 µM (inactive) | > 100 µM (inactive) | > 100 µM (inactive) | 31.3 µM (inactive) | > 100 µM (inactive) | > 100 µM (inactive) | > 100 µM (inactive) | 37.2 µM (inactive) | > 100 µM (inactive) | 40.8 µM (inactive) | > 100 µM (inactive) | 28.6 µM (inactive) | 88.7 µM (inactive) | 83.9 µM (inactive) | 23.7 µM (inactive) | 88.1 µM (inactive) | 38.2 µM (inactive) | 35.2 µM (inactive)
CCOC(=O)c1ccc(C(=O)OCC)n1-c1cc2cc(c1)CSCc1cc(cc(-n3c(C(=O)OCC)ccc3C(=O)OCC)c1)CSC2 | > 10 µM (inactive) | > 10 µM (inactive) | > 10 µM (inactive) | > 10 µM (inactive) | > 10 µM (inactive) | > 10 µM (inactive) | > 10 µM (inactive) | > 10 µM (inactive) | > 10 µM (inactive) | > 10 µM (inactive) | > 10 µM (inactive) | > 10 µM (inactive) | > 10 µM (inactive) | > 10 µM (inactive) | > 10 µM (inactive) | > 10 µM (inactive) | > 10 µM (inactive) | > 10 µM (inactive) | > 10 µM (inactive) | > 10 µM (inactive)
O=C(c1nc2ccc([N+](=O)[O-])cc2nc1O)C(O)c1ccc2c(c1)OCO2 (stereo not given) | > 100 µM (inactive) | > 100 µM (inactive) | > 100 µM (inactive) | > 100 µM (inactive) | > 100 µM (inactive) | > 100 µM (inactive) | > 100 µM (inactive) | > 100 µM (inactive) | > 50.7 µM (inactive) | > 78.9 µM (inactive) | > 100 µM (inactive) | > 100 µM (inactive) | > 100 µM (inactive) | > 100 µM (inactive) | 96.8 µM (inactive) | 52.7 µM (inactive) | > 100 µM (inactive) | > 100 µM (inactive) | 14.8 µM (inactive) | > 100 µM (inactive)
CC(=O)c1ccc2c(c1)CC1(C2)Cc2cc3c(cc2C1=O)CCC3 (stereo not given) | 3.04 µM (inactive) | 25.9 µM (inactive) | 25.7 µM (inactive) | 24.6 µM (inactive) | 16.1 µM (inactive) | 28.9 µM (inactive) | 15.1 µM (inactive) | 29.9 µM (inactive) | 16.1 µM (inactive) | 16.5 µM (inactive) | 33.6 µM (inactive) | 27.6 µM (inactive) | 18.6 µM (inactive) | 15 µM (inactive) | 20.8 µM (inactive) | 17.5 µM (inactive) | 21.7 µM (inactive) | 13.3 µM (inactive) | 22.7 µM (inactive) | 15.6 µM (inactive)
COc1cc(C2c3cc4c(cc3OC(NC3CCCCC3)C2C)OCO4)cc(OC)c1OC (stereo not given) | 0.378 µM (active) | 2.65 µM (inactive) | 16.9 µM (inactive) | 21.8 µM (inactive) | 0.746 µM (active) | 0.701 µM (active) | 0.615 µM (active) | 0.339 µM (active) | 0.267 µM (active) | 0.393 µM (active) | 0.394 µM (active) | 0.377 µM (active) | 1.5 µM (inactive) | 46.8 µM (inactive) | 0.485 µM (active) | 0.47 µM (active) | 0.578 µM (active) | 0.321 µM (active) | 0.359 µM (active) | 0.223 µM (active)
CC(C)CC(NC(=O)OC(C)(C)C)C(=O)Nc1ccc(Nc2nc(F)nc(-c3c4ccccc4cn3C)n2)cc1 (stereo not given) | 53.6 µM (inactive) | 52.2 µM (inactive) | > 92.7 µM (inactive) | > 100 µM (inactive) | 62.7 µM (inactive) | > 100 µM (inactive) | > 41.8 µM (inactive) | > 93.3 µM (inactive) | 22.5 µM (inactive) | 62.2 µM (inactive) | > 100 µM (inactive) | 40.3 µM (inactive) | 15.8 µM (inactive) | > 100 µM (inactive) | 4.89 µM (inactive) | 72.1 µM (inactive) | > 100 µM (inactive) | > 100 µM (inactive) | 75.3 µM (inactive) | 47.1 µM (inactive)
C=COC(=O)N[C@H]1CCc2cc(OC)c(OC)c(OC)c2-c2ccc(SC)c(=O)cc21 | < 0.01 µM (active) | < 0.01 µM (active) | 0.177 µM (active) | 1.36 µM (inactive) | < 0.01 µM (active) | < 0.01 µM (active) | 4.97 µM (inactive) | < 0.01 µM (active) | < 0.01 µM (active) | < 0.01 µM (active) | 0.0255 µM (active) | < 0.01 µM (active) | < 0.01 µM (active) | 0.116 µM (active) | < 0.0136 µM (active) | < 0.01 µM (active) | < 0.01 µM (active) | < 0.01 µM (active) | < 0.01 µM (active) | 0.0578 µM (active)
COC(=O)CCC(C)[C@H]1CCC2C3C(C[C@H](OC(C)=O)[C@@]21C)[C@@]1(C)CCC2(C[C@H]1C[C@H]3OC(C)=O)OOC1(CCCC1)OO2 (stereo not given in full) | 3.02 µM (inactive) | 9.62 µM (inactive) | 48.3 µM (inactive) | > 100 µM (inactive) | 10.4 µM (inactive) | 25.6 µM (inactive) | 12.6 µM (inactive) | > 100 µM (inactive) | 5.56 µM (inactive) | 6.3 µM (inactive) | > 100 µM (inactive) | 16.5 µM (inactive) | > 100 µM (inactive) | 39.2 µM (inactive) | 31.5 µM (inactive) | 6.43 µM (inactive) | > 100 µM (inactive) | > 100 µM (inactive) | 23.4 µM (inactive) | 96.4 µM (inactive)
C[C@]12CC[C@H](O)C=C1CC[C@@H]1[C@@H]2CC[C@]2(C)C(=N/O)/C(=C/c3ccncc3)C[C@@H]12 | 3.4 µM (inactive) | 7.48 µM (inactive) | 12.4 µM (inactive) | 19.7 µM (inactive) | 8.43 µM (inactive) | 15.2 µM (inactive) | 10.1 µM (inactive) | 5.53 µM (inactive) | 5.53 µM (inactive) | 5.13 µM (inactive) | 15.6 µM (inactive) | 19.4 µM (inactive) | 3.84 µM (inactive) | 7.67 µM (inactive) | 3.87 µM (inactive) | 5 µM (inactive) | 10.3 µM (inactive) | 17.5 µM (inactive) | 9.35 µM (inactive) | 14.4 µM (inactive)
CC(C)c1cc(C(C)C)c(P2(=O)CC3C(Cl)(Cl)C3(C)C2)c(C(C)C)c1 (stereo not given) | 1.74 µM (inactive) | 12.2 µM (inactive) | 12.1 µM (inactive) | 15.8 µM (inactive) | 12.5 µM (inactive) | 12.1 µM (inactive) | 4.94 µM (inactive) | 14 µM (inactive) | 7.57 µM (inactive) | 8.95 µM (inactive) | 16.4 µM (inactive) | 17.3 µM (inactive) | 13.4 µM (inactive) | 7.96 µM (inactive) | 7.31 µM (inactive) | 7.29 µM (inactive) | 11.3 µM (inactive) | 17.5 µM (inactive) | 2.09 µM (inactive) | 11.6 µM (inactive)
N#CNC(=N)Nc1ccc(Cl)cc1 | > 100 µM (inactive) | > 100 µM (inactive) | > 100 µM (inactive) | > 100 µM (inactive) | > 100 µM (inactive) | > 100 µM (inactive) | > 100 µM (inactive) | > 100 µM (inactive) | > 100 µM (inactive) | > 100 µM (inactive) | > 100 µM (inactive) | > 100 µM (inactive) | > 100 µM (inactive) | > 100 µM (inactive) | > 100 µM (inactive) | > 100 µM (inactive) | > 100 µM (inactive) | > 100 µM (inactive) | > 100 µM (inactive) | > 100 µM (inactive)
COC(=O)c1ccccc1C1CN=NC12Cc1c(C)cccc1C2=O (stereo not given) | > 100 µM (inactive) | 29.1 µM (inactive) | > 100 µM (inactive) | > 100 µM (inactive) | > 100 µM (inactive) | > 100 µM (inactive) | > 100 µM (inactive) | > 100 µM (inactive) | > 100 µM (inactive) | > 100 µM (inactive) | > 100 µM (inactive) | > 100 µM (inactive) | > 100 µM (inactive) | > 100 µM (inactive) | > 100 µM (inactive) | 69.2 µM (inactive) | 48.3 µM (inactive) | > 100 µM (inactive) | > 100 µM (inactive) | 94.4 µM (inactive)
COc1nc(C(Cl)(Cl)Cl)c(Cl)c(OC)c1Cl [PENCLOMEDINE] | 37.1 µM (inactive) | 28.2 µM (inactive) | 52.6 µM (inactive) | 39.7 µM (inactive) | 39.3 µM (inactive) | 36.1 µM (inactive) | 25.7 µM (inactive) | 40.8 µM (inactive) | 38.8 µM (inactive) | 26.4 µM (inactive) | 16.2 µM (inactive) | 33.3 µM (inactive) | 46.1 µM (inactive) | 43.8 µM (inactive) | 17.7 µM (inactive) | 41.9 µM (inactive) | 35.1 µM (inactive) | 31.2 µM (inactive) | 33.1 µM (inactive) | 7.76 µM (inactive)
Cc1cccc(-c2nc3ccc([N+](=O)[O-])cc3c(=O)o2)c1 | 28.8 µM (inactive) | 16 µM (inactive) | 59.3 µM (inactive) | > 100 µM (inactive) | 83.8 µM (inactive) | 60.3 µM (inactive) | 68.9 µM (inactive) | 27.9 µM (inactive) | 47.9 µM (inactive) | 35.3 µM (inactive) | > 100 µM (inactive) | 22 µM (inactive) | > 100 µM (inactive) | 64.3 µM (inactive) | 62.5 µM (inactive) | 42.8 µM (inactive) | 91.2 µM (inactive) | 51.4 µM (inactive) | 32.3 µM (inactive) | > 100 µM (inactive)
